Test results: patent publication US11076594B2, “Pyrazolone compound or salt thereof, preparation method therefor, herbicide composition and use thereof” (QINGDAO KINGAGROOT CHEMICAL COMPOUNDS CO., LTD., priority 2015, dated 2021)

Legend:
Format in all cases: in vivo
alopecurus japonicas = assay: wheat field resistant weed control, greenhouse spray at 4 leaf stage; set-up: key: Level 10: completely dead; Level 9: above 95% growth control rate; Level 8: above 90% growth control rate; Level 7: above 80% growth control rate; Level 6: above 70% growth control rate; Level 5: above 60% growth control rate; Level 4: above 50% growth control rate; Level 3: above 20% growth control rate; Level 2: 5%-20% growth control rate; Level 1: below 5% growth control rate; conditions: sprayed at 4 leaf stage, 4 weeks after treatment, resistant to ALS and ACCase inhibitor herbicides
Procedure: (§1) The activity level standard of harmful plant destruction (i.e. growth control rate) is as follows:
(§2) The above described growth control rate is fresh weight control rate.
(§3) The seeds of alopecurus japonicas, flixweed, shepherd's purse, corn gromwell, chickweed, beckmannia syzigachne, and annual ryegrass and wheat seeds were put into a plastic pot loaded with soil, and then covered with 0.5-2 cm soil, the seeds were allowed to grow in good greenhouse environment. The test plants were treated at 4 leaf stage 2-3 weeks after sowing. The test compounds of the present invention were dissolved in acetone respectively, then added with methyl oleate emulsion and diluted by certain amount of water to certain concentration. The solution was sprayed to the plant with a sprayer. Then the plants were cultured for 4 weeks in greenhouse.

rice = assay: post-emergence stage experiment, crop (Table 1); set-up: key: Level 10: completely dead; Level 9: above 95% growth control rate; Level 8: above 90% growth control rate; Level 7: above 80% growth control rate; Level 6: above 70% growth control rate; Level 5: above 60% growth control rate; Level 4: above 50% growth control rate; Level 3: above 20% growth control rate; Level 2: 5%-20% growth control rate; Level 1: below 5% growth control rate; conditions: post-emergence spray at 4-5 leaf stage, 250 g/ha active ingredient with 450 kg/ha water, rated after 3 weeks in greenhouse
Procedure, shortened: (§4)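 Weeds and crops grown in soil-filled pots in a greenhouse were sprayed at the 4-5 leaf stage (2-3 weeks after sowing). Compounds were applied in acetone with tween 80, diluted in water. After 3 weeks' culture, growth control was scored as fresh weight control rate.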

foxtail = assay: weed control effect in post-emergence stage (Table 1); set-up: key: Level 10: completely dead; Level 9: above 95% growth control rate; Level 8: above 90% growth control rate; Level 7: above 80% growth control rate; Level 6: above 70% growth control rate; Level 5: above 60% growth control rate; Level 4: above 50% growth control rate; Level 3: above 20% growth control rate; Level 2: 5%-20% growth control rate; Level 1: below 5% growth control rate; conditions: post-emergence spray at 4-5 leaf stage, 250 g/ha active ingredient with 450 kg/ha water, rated after 3 weeks in greenhouse
Procedure, shortened: as §4

bidens bipinnata = assay: as above; set-up: key: Level 10: completely dead; Level 9: above 95% growth control rate; Level 8: above 90% growth control rate; Level 7: above 80% growth control rate; Level 6: above 70% growth control rate; Level 5: above 60% growth control rate; Level 4: above 50% growth control rate; Level 3: above 20% growth control rate; Level 2: 5%-20% growth control rate; Level 1: below 5% growth control rate; conditions: post-emergence spray at 4-5 leaf stage, 250 g/ha active ingredient with 450 kg/ha water, rated after 3 weeks in greenhouse
Procedure, shortened: as §4

echinochloa = assay: as above; set-up: key: Level 10: completely dead; Level 9: above 95% growth control rate; Level 8: above 90% growth control rate; Level 7: above 80% growth control rate; Level 6: above 70% growth control rate; Level 5: above 60% growth control rate; Level 4: above 50% growth control rate; Level 3: above 20% growth control rate; Level 2: 5%-20% growth control rate; Level 1: below 5% growth control rate; conditions: post-emergence spray at 4-5 leaf stage, 250 g/ha active ingredient with 450 kg/ha water, rated after 3 weeks in greenhouse
Procedure, shortened: as §4

Indian mallow = assay: as above; set-up: key: Level 10: completely dead; Level 9: above 95% growth control rate; Level 8: above 90% growth control rate; Level 7: above 80% growth control rate; Level 6: above 70% growth control rate; Level 5: above 60% growth control rate; Level 4: above 50% growth control rate; Level 3: above 20% growth control rate; Level 2: 5%-20% growth control rate; Level 1: below 5% growth control rate; conditions: post-emergence spray at 4-5 leaf stage, 250 g/ha active ingredient with 450 kg/ha water, rated after 3 weeks in greenhouse
Procedure, shortened: as §4

rorippa indica = assay: as above; set-up: key: Level 10: completely dead; Level 9: above 95% growth control rate; Level 8: above 90% growth control rate; Level 7: above 80% growth control rate; Level 6: above 70% growth control rate; Level 5: above 60% growth control rate; Level 4: above 50% growth control rate; Level 3: above 20% growth control rate; Level 2: 5%-20% growth control rate; Level 1: below 5% growth control rate; conditions: post-emergence spray at 4-5 leaf stage, 250 g/ha active ingredient with 450 kg/ha water, rated after 3 weeks in greenhouse
Procedure, shortened: as §4

crab grass = assay: as above; set-up: key: Level 10: completely dead; Level 9: above 95% growth control rate; Level 8: above 90% growth control rate; Level 7: above 80% growth control rate; Level 6: above 70% growth control rate; Level 5: above 60% growth control rate; Level 4: above 50% growth control rate; Level 3: above 20% growth control rate; Level 2: 5%-20% growth control rate; Level 1: below 5% growth control rate; conditions: post-emergence spray at 4-5 leaf stage, 250 g/ha active ingredient with 450 kg/ha water, rated after 3 weeks in greenhouse
Procedure, shortened: as §4

wheat [1] = assay: post-emergence stage experiment, crop (Table 1); conditions: post-emergence spray at 4-5 leaf stage, 250 g/ha active ingredient with 450 kg/ha water, rated after 3 weeks in greenhouse
Procedure, shortened: as §4

wheat [2] = assay: wheat field test, crop selectivity, greenhouse spray at 4 leaf stage; conditions: sprayed at 4 leaf stage, 4 weeks after treatment
Procedure: as §1, §2, §3

corn = assay: post-emergence stage experiment, crop (Table 1); conditions: post-emergence spray at 4-5 leaf stage, 250 g/ha active ingredient with 450 kg/ha water, rated after 3 weeks in greenhouse
Procedure, shortened: as §4

| Compound | Alopecurus japonicas weed controlling effect (activity level) (alopecurus japonicas; 1 g/mu) | Alopecurus japonicas weed controlling effect (activity level) (alopecurus japonicas; 2 g/mu) | Alopecurus japonicas weed controlling effect (activity level) (alopecurus japonicas; 4 g/mu) | Alopecurus japonicas weed controlling effect (activity level) (alopecurus japonicas; 8 g/mu) | effect on crop, Rice (level) (rice) | weed control effect, Green foxtail (level) (foxtail) | weed control effect, Bidens bipinnata (level) (bidens bipinnata) | weed control effect, Echinochloa (level) (echinochloa) | weed control effect, Indian mallow (level) (Indian mallow) | weed control effect, Rorippa indica (level) (rorippa indica) | weed control effect, Crab grass (level) (crab grass) | effect on crop, Wheat (level) (wheat [1]) | Wheat (activity level, crop damage) (wheat [2]; 2 g/mu) | Wheat (activity level, crop damage) (wheat [2]; 4 g/mu) | Wheat (activity level, crop damage) (wheat [2]; 8 g/mu) | Wheat (activity level, crop damage) (wheat [2]; 16 g/mu) | Wheat (activity level, crop damage) (wheat [2]; 32 g/mu) | effect on crop, Corn (level) (corn) |
| --- | --- | --- | --- | --- | --- | --- | --- | --- | --- | --- | --- | --- | --- | --- | --- | --- | --- | --- |
| CCS(=O)(=O)Oc1c(C(=O)c2ccc(C(F)(F)F)c(N3CCCC3=O)c2Cl)c(C)nn1C [Compound 019] | 1 (Level 1: below 5% growth control rate) | 4 (Level 4: above 50% growth control rate) | 6 (Level 6: above 70% growth control rate) | 6 (Level 6: above 70% growth control rate) | 7 (Level 7: above 80% growth control rate) | 10 | 9 (Level 9: above 95% growth control rate) | 9 (Level 9: above 95% growth control rate) | 10 | 9 (Level 9: above 95% growth control rate) | 9 (Level 9: above 95% growth control rate) | 0 | 0 | 0 | 2 (Level 2: 5%-20% growth control rate) | 3 (Level 3: above 20% growth control rate) | 4 (Level 4: above 50% growth control rate) | – |
| CCOc1c(C(=O)Oc2c(C(=O)c3ccc(C(F)(F)F)c(N4CCCC4=O)c3Cl)c(C)nn2C)cnn1C [Compound 021] | 2 (Level 2: 5%-20% growth control rate) | 6 (Level 6: above 70% growth control rate) | 10 | 10 | 5 (Level 5: above 60% growth control rate) | 10 | – | 6 (Level 6: above 70% growth control rate) | 9 (Level 9: above 95% growth control rate) | – | 7 (Level 7: above 80% growth control rate) | 3 (Level 3: above 20% growth control rate) | 0 | 1 (Level 1: below 5% growth control rate) | 4 (Level 4: above 50% growth control rate) | 4 (Level 4: above 50% growth control rate) | 4 (Level 4: above 50% growth control rate) | 3 (Level 3: above 20% growth control rate) |
| Cn1ncc(C(=O)c2ccc(C(F)(F)F)c(N3CCCC3=O)c2Cl)c1O [Compound 014] | – | – | – | – | 3 (Level 3: above 20% growth control rate) | 10 | 8 (Level 8: above 90% growth control rate) | 5 (Level 5: above 60% growth control rate) | 7 (Level 7: above 80% growth control rate) | 10 | 10 | 3 (Level 3: above 20% growth control rate) | – | – | – | – | – | 8 (Level 8: above 90% growth control rate) |
| CCn1ncc(C(=O)c2ccc(C(F)(F)F)c(-n3cc(C)cn3)c2Cl)c1OC(=O)c1cn(C)nc1C [Compound 137] | – | – | – | – | 8 (Level 8: above 90% growth control rate) | 10 | 10 | 10 | 10 | 8 (Level 8: above 90% growth control rate) | 7 (Level 7: above 80% growth control rate) | 3 (Level 3: above 20% growth control rate) | – | – | – | – | – | 5 (Level 5: above 60% growth control rate) |
| CCc1nn(C)c(O)c1C(=O)c1ccc(C(F)(F)F)c(N2CCCCC2=O)c1Cl [Compound 110] | – | – | – | – | 10 | 10 | 5 (Level 5: above 60% growth control rate) | 9 (Level 9: above 95% growth control rate) | 9 (Level 9: above 95% growth control rate) | 10 | 2 (Level 2: 5%-20% growth control rate) | 2 (Level 2: 5%-20% growth control rate) | – | – | – | – | – | 0 |
| COC(=O)Oc1c(C(=O)c2ccc(C(F)(F)F)c(N3CCCC3=O)c2Cl)c(C)nn1C [Compound 020] | 1 (Level 1: below 5% growth control rate) | 6 (Level 6: above 70% growth control rate) | 6 (Level 6: above 70% growth control rate) | 8 (Level 8: above 90% growth control rate) | 8 (Level 8: above 90% growth control rate) | 10 | 9 (Level 9: above 95% growth control rate) | 10 | 10 | 9 (Level 9: above 95% growth control rate) | 10 | 0 | 1 (Level 1: below 5% growth control rate) | 3 (Level 3: above 20% growth control rate) | 3 (Level 3: above 20% growth control rate) | 4 (Level 4: above 50% growth control rate) | 4 (Level 4: above 50% growth control rate) | – |
